US10351578B2, “Heterocyclic-substituted pyridinopyrimidinone derivative as CDK inhibitor and use thereof” (Shanghai Xunhe Pharmaceutical Technology Co. Ltd., priority 2016, dated 2019)

What was measured:
[1] = biological target: T1, CDK4 protein kinase (GST-CDK4(1-303 end)) (Homo sapiens, UniProt P11802); experiment: CDK4 protein kinase activity, Caliper mobility shift assay; type: biochemical; conditions: substrate Peptide FAM-P8, 28° C. for 3 h
T1 construct: GST-CDK4(1-303 end); GST (N)
Protocol: (§1) Activity Assay: The CDK4 protein kinase activity was measured using the Caliper mobility shift assay (see J. Biomol. Screen, 2009, PP31). The test compound was dissolved in DMSO and diluted with a kinase buffer solution (20 mM HEPES-pH 7.5, 0.01% Triton X-100, 10 mM MgCl2, 2 mM DTT) and 5 μL of the compound at 5-fold final concentration of reaction dissolved in 10% DMSO was added in a 384-well plate. The compound-free control well was 5 μL of 10% DMSO, and the no-activity control well was 5 μL of kinase buffer. 10 μL of a 2.5-fold diluted CDK4 enzyme solution (GST-CDK4(1-303 end)) was added and incubated at room temperature for 10 min, and then 10 μL of the 2.5-fold diluted substrate solution Peptide FAM-P8 was added. The reaction was stopped by adding 25 μL of stop solution after incubation at 28° C. for 3 h, and the conversion rate data was read on a Caliper EZ Reader II (Caliper Life Sciences) and the conversion rate was converted to inhibition rate data according to above method. Among them, the inhibition rate %=(max−conversion)/(max−min)×100%.

[2] = biological target: T2, CDK6 protein kinase (GST-CDK6(1-326 end)) (Homo sapiens, UniProt Q00534); experiment: CDK6 protein kinase activity, Caliper mobility shift assay; type: biochemical; conditions: substrate Peptide FAM-P8, 28° C. for 3 h
T2 construct: GST-CDK6(1-326 end); GST (N)
Protocol: as §1, with “CDK6” for “CDK4”, “(GST-CDK6(1-326” for “(GST-CDK4(1-303”

T1 sequence (P11802 whole entry): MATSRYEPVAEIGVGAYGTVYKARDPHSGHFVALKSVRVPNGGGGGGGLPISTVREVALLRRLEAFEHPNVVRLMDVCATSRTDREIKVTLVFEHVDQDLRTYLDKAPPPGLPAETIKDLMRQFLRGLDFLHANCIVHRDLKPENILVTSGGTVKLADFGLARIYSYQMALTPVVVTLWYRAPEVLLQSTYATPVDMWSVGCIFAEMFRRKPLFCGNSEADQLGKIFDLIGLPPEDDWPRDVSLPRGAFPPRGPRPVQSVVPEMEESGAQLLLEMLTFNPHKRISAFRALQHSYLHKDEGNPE
T1 sequence (P30281 whole entry partner): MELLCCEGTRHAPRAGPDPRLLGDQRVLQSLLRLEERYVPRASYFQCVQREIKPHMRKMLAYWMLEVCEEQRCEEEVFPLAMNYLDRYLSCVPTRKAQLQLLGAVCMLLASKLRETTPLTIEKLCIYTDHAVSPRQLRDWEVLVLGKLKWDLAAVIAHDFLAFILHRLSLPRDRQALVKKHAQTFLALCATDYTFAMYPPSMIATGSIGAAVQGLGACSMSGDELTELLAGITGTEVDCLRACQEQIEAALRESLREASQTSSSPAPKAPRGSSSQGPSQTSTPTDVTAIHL
T2 sequence (Q00534 whole entry): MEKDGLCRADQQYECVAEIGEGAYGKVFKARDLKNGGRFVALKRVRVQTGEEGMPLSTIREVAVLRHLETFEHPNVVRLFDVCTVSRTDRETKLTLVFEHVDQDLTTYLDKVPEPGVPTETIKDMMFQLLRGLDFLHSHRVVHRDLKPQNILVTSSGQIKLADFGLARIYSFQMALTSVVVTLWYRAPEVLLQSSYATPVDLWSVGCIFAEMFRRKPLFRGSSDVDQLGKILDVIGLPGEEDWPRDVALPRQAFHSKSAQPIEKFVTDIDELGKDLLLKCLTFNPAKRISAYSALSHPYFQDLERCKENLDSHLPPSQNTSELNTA
T2 sequence (P30281 whole entry partner): as the sequence (P30281 whole entry partner) above

Molecule	IC50 [1] [nM]	IC50 [2] [nM]
8′-cyclopentyl-2′-(5-(4-ethyl-1-piperazinyl)-pyridin-2-amino)spiro[cycloprop-1,6′-pyrimido[5,4-b][1,4]oxazin]-7′(8′H)-one [Compound I-25]	≤ 20	≤ 20
CC(C)N1C(=O)C(C)(C)Oc2cnc(Nc3ccc(N4CCNCC4)cn3)nc21 [Compound I-1, 6,6-Dimethyl-8-isopropyl-2-(5-(1-piperazinyl)-pyridin-2-amino)-6H-pyrimido[5,4-b][1,4]oxazin-7(8H)-one]	≤ 20	≤ 20
O=C1N(C2CCCC2)c2nc(Nc3ccc(N4CCNCC4)cn3)ncc2OC12CC2 [Compound I-4, 8′-cyclopentyl-2′-(5-(1-piperazinyl)-pyridin-2-amino)spiro[cycloprop-1,6′-pyrimido[5,4-b][1,4]oxazin]-7′(8′H)-one]	≤ 20	20 to 100
O=C1N(C2CCCC2)c2nc(Nc3ccc(N4CCNCC4)cn3)ncc2OC12CCCCC2 [Compound I-7, 8′-cyclopentyl-2′-(5-(1-piperazinyl)-pyridin-2-amino)spiro[cyclohex-1,6′-pyrimido[5,4-b][1,4]oxazin]-7′(8′H)-one]	≤ 20	≤ 20
O=C1N(C2CCCC2)c2nc(Nc3ccc(N4CCNCC4)cn3)ncc2OC12CCCCCC2 [Compound I-8, 8′-cyclopentyl-2′-(5-(1-piperazinyl)-pyridin-2-amino)spiro[cyclohepta-1,6′-pyrimido[5,4-b][1,4]oxazin]-7′(8′H)-one]	≤ 20	20 to 100
CC(=O)C1Oc2cnc(Nc3ccc(N4CCNCC4)cn3)nc2N(C2CCCC2)C1=O (stereo not shown) [Compound I-9, 6-acetyl-8-cyclopentyl-2-(5-(1-piperazinyl)-pyridin-2-amino)-6H-pyrimido[5,4-b][1,4]oxazin-7(8H)-one]	≤ 20	20 to 100
O=C1C(C(F)(F)F)Oc2cnc(Nc3ccc(N4CCNCC4)cn3)nc2N1C1CCCC1 (stereo not shown) [Compound I-11, 6-trifluoromethyl-8-cyclopentyl-2-(5-(1-piperazinyl)-pyridin-2-amino)-6H-pyrimido[5,4-b][1,4]oxazin-7(8H)-one]	≤ 20	20 to 100
O=C1C(C2CC2)Oc2cnc(Nc3ccc(N4CCNCC4)cn3)nc2N1C1CCCC1 (stereo not shown) [Compound I-13, 6-cyclopropyl-8-cyclopentyl-2-(5-(1-piperazinyl)-pyridin-2-amino)-6H-pyrimido[5,4-b][1,4]oxazin-7(8H)-one]	≤ 20	≤ 20
CCN1CCN(Cc2ccc(Nc3ncc4c(n3)N(C)C(=O)C(C(C)C)O4)nc2)CC1 (stereo not shown) [Compound I-15, 6-isopropyl-8-methyl-2-(5-(4-ethyl-1-piperazinyl)methyl-pyridin-2-amino)-6H-pyrimido[5,4-b][1,4]oxazin-7(8H)-one]	≤ 20	20 to 100
CCN1C(=O)C(C)(CC)Oc2cnc(Nc3ccc(CN4CCN(C)CC4)cn3)nc21 (stereo not shown) [Compound I-16, 6-methyl-6,8-diethyl-2-(5-(4-methyl-1-piperazinyl)methyl-pyridin-2-amino)-6H-pyrimido[5,4-b][1,4]oxazin-7(8H)-one]	≤ 20	≤ 20
CCC(C)N1C(=O)C(C2CCCC2)Sc2cnc(Nc3ccc(CN4CCNCC4)cn3)nc21 (stereo not shown) [Compound I-17, 6-cyclopentyl-8-sec-butyl-2-(5-(1-piperazinyl)methyl-pyridin-2-amino)-6H-pyrimido[5,4-b][1,4]thiazin-7(8H)-one]	≤ 20	> 500
CCCN1CCN(Cc2ccc(Nc3ncc4c(n3)N(C(C)C(C)C)C(=O)C(C3CCCCCC3)S4)nc2)CC1 (stereo not shown) [Compound I-19, 6-cycloheptyl-8-(3-methyl-2-butyl)-2-(5-(4-n-propyl-1-piperazinyl)methyl-pyridine-2-amino)-6H-pyrimido[5,4-b][1,4]thiazin-7(8H)-one]	≤ 20	20 to 100
CC1(C)Oc2cnc(Nc3ccc(N4CCN(C5CCCC5)CC4)cn3)nc2N(C2CCCC2)C1=O [Compound I-21, 6,6-dimethyl-8-cyclopentyl-2-(5-(4-cyclopentyl-1-piperazinyl)-pyridin-2-amino)-6H-pyrimido[5,4-b][1,4]oxazin-7(8H)-one]	≤ 20	20 to 100
CC1(C)Oc2cnc(Nc3ccc(N4CCN(C5CCCCC5)CC4)cn3)nc2N(C2CCCC2)C1=O [Compound I-22, 6,6-dimethyl-8-cyclopentyl-2-(5-(4-cyclohexyl-1-piperazinyl)-pyridin-2-amino)-6H-pyrimido[5,4-b][1,4]oxazin-7(8H)-one]	≤ 20	≤ 20
CCN1CCN(Cc2ccc(Nc3ncc4c(n3)N(C3CCCC3)C(=O)C(C(C)=O)O4)nc2)CC1 (stereo not shown) [Compound I-26, 6-acetyl-8-cyclopentyl-2-(5-(4-ethyl-1-piperazinyl)methyl-pyridin-2-amino)-6H-pyrimido[5,4-b][1,4]oxazin-7(8H)-one]	≤ 20	100 to 500

Now from value to molecule:

IC50 [1] [nM]	IC50 [2] [nM]	Molecule
≤ 20	≤ 20	CC1(C)Oc2cnc(Nc3ccc(N4CCNCC4)cn3)nc2N(C2CCCC2)C1=O [Compound I-2, 6,6-Dimethyl-8-cyclopentyl-2-(5-(1-piperazinyl)-pyridin-2-amino)-6H-pyrimido[5,4-b][1,4]oxazin-7(8H)-one]
≤ 20	≤ 20	CCN1CCN(Cc2ccc(Nc3ncc4c(n3)N(C3CCCC3)C(=O)C(C)(C)O4)nc2)CC1 [Compound I-3, 6,6-Dimethyl-8-cyclopentyl-2-(5-(4-ethyl-1-piperazinyl)methyl-pyridin-2-amino)-6H-pyrimido[5,4-b][1,4]oxazin-7(8H)-one]
≤ 20	20 to 100	O=C1N(C2CCCC2)c2nc(Nc3ccc(N4CCNCC4)cn3)ncc2OC12CCC2 [Compound I-5, 8′-cyclopentyl-2′-(5-(1-piperazinyl)-pyridin-2-amino)spiro[cyclobut-1,6′-pyrimido[5,4-b][1,4]oxazin]-7′(8′H)-one]
≤ 20	20 to 100	O=C1N(C2CCCC2)c2nc(Nc3ccc(N4CCNCC4)cn3)ncc2OC12CCCC2 [Compound I-6, 8′-cyclopentyl-2′-(5-(1-piperazinyl)-pyridin-2-amino)spiro[cyclopenta-1,6′-pyrimido[5,4-b][1,4]oxazin]-7′(8′H)-one]
≤ 20	100 to 500	N#CC1Oc2cnc(Nc3ccc(N4CCNCC4)cn3)nc2N(C2CCCC2)C1=O (stereo not shown) [Compound I-10, 6-cyano-8-cyclopentyl-2-(5-(1-piperazinyl)-pyridin-2-amino)-6H-pyrimido[5,4-b][1,4]oxazin-7(8H)-one]
≤ 20	20 to 100	O=C1N(C2CCCC2)c2nc(Nc3ccc(N4CCNCC4)cn3)ncc2OC1(F)F [Compound I-12, 6,6-difluoro-8-cyclopentyl-2-(5-(1-piperazinyl)-pyridin-2-amino)-6H-pyrimido[5,4-b][1,4]oxazin-7(8H)-one]
≤ 20	≤ 20	CCN1CCN(Cc2ccc(Nc3ncc4c(n3)N(C3CCCC3)C(=O)C(C3CCC3)O4)nc2)CC1 (stereo not shown) [Compound I-14, 6-cyclobutyl-8-cyclopentyl-2-(5-(4-ethyl-1-piperazinyl)methyl-pyridin-2-amino)-6H-pyrimido[5,4-b][1,4]oxazin-7(8H)-one]
≤ 20	≤ 20	CCC(C)(C)N1C(=O)C(C2CCCCC2)Oc2cnc(Nc3ccc(CN4CCN(C5CC5)CC4)cn3)nc21 (stereo not shown) [Compound I-18, 6-cyclohexyl-8-tert-amyl-2-(5-(4-cyclopropyl-1-piperazinyl)methyl-pyridin-2-amino)-6H-pyrimido[5,4-b][1,4]oxazin-7(8H)-one]
≤ 20	≤ 20	CC1(C)Oc2cnc(Nc3ccc(N4CCN(C5CCC5)CC4)cn3)nc2N(C2CCCC2)C1=O [Compound I-20, 6,6-dimethyl-8-cyclopentyl-2-(5-(4-cyclobutyl-1-piperazinyl)-pyridin-2-amino)-6H-pyrimido[5,4-b][1,4]oxazin-7(8H)-one]
≤ 20	≤ 20	CC1(C)Sc2cnc(Nc3ccc(N4CCN(C5CCCCCC5)CC4)cn3)nc2N(C2CCCC2)C1=O [Compound I-23, 6,6-dimethyl-8-cyclopentyl-2-(5-(4-cycloheptyl-1-piperazinyl)-pyridin-2-amino)-6H-pyrimido[5,4-b][1,4]thiazin-7(8H)-one]
≤ 20	≤ 20	CC(C)N1CCN(c2ccc(Nc3ncc4c(n3)N(C3CCCC3)C(=O)C(C)(C)S4)nc2)CC1 [Compound I-24, 6,6-dimethyl-8-cyclopentyl-2-(5-(4-isopropyl-1-piperazinyl)-pyridin-2-amino)-6H-pyrimido[5,4-b][1,4]thiazin-7(8H)-one]
